Laboratory results taken from ChEMBL document CHEMBL4507311, “Data for DCP probe A-1155463” (2021).

What was measured:
[1] = target: Wee1-like protein kinase 2 (Homo sapiens) (UniProt P0C1S8); conditions: Compound concentration 1000.0 nM
[2] = target: 5-hydroxytryptamine receptor 6 (Homo sapiens) (UniProt P50406); conditions: Compound concentration 10.0 uM
[3] = target: Serine/threonine-protein kinase TNNI3K (Homo sapiens) (UniProt Q59H18); conditions: Compound concentration 1000.0 nM
[4] = tested on: RS4-11; test: CellTiter-Glo Luminescent Cell Viability Assay (BCL-2 dependent cell line RS4-11); format: functional, cell-based; conditions: Homo sapiens
[5] = target: Dual specificity protein kinase TTK (Homo sapiens) (UniProt P33981); conditions: Compound concentration 1000.0 nM
[6] = target: Cyclin-dependent kinase 11B (Homo sapiens) (UniProt P21127); conditions: Compound concentration 1000.0 nM
[7] = target: Ribosomal protein S6 kinase alpha-6 (Homo sapiens) (UniProt Q9UK32); conditions: Compound concentration 1000.0 nM
[8] = tested on: Fibroblast growth factor receptor 3 (Homo sapiens), P22607 [G697C]; conditions: Compound concentration 1000.0 nM
[9] = target: Tyrosine-protein kinase Srms (Homo sapiens) (UniProt Q9H3Y6); conditions: Compound concentration 1000.0 nM
[10] = tested on: Tyrosine-protein kinase ABL1 (Homo sapiens), P00519 [Y253F]; conditions: Compound concentration 1000.0 nM
[11] = target: Calcium/calmodulin-dependent protein kinase type 1B (Homo sapiens) (UniProt Q6P2M8); conditions: Compound concentration 1000.0 nM
[12] = tested on: Mast/stem cell growth factor receptor Kit (Homo sapiens), P10721 [D816H]; conditions: Compound concentration 1000.0 nM
[13] = target: Serine/threonine-protein kinase LATS1 (Homo sapiens) (UniProt O95835); conditions: Compound concentration 1000.0 nM
[14] = tested on: Tyrosine-protein kinase ABL1 (Homo sapiens), P00519 [T315I]; conditions: Compound concentration 1000.0 nM
[15] = target: Serine/threonine-protein kinase TAO2 (Homo sapiens) (UniProt Q9UL54); conditions: Compound concentration 1000.0 nM
[16] = target: Serine/threonine-protein kinase WNK3 (Homo sapiens) (UniProt Q9BYP7); conditions: Compound concentration 1000.0 nM
[17] = target: Calcium/calmodulin-dependent protein kinase type 1G (Homo sapiens) (UniProt Q96NX5); conditions: Compound concentration 1000.0 nM
[18] = target: Muscle, skeletal receptor tyrosine-protein kinase (Homo sapiens) (UniProt O15146); conditions: Compound concentration 1000.0 nM
[19] = target: 5-hydroxytryptamine receptor 2B (Homo sapiens) (UniProt P41595); conditions: Compound concentration 10.0 uM
[20] = target: Dual specificity mitogen-activated protein kinase kinase 3 (Homo sapiens) (UniProt P46734); conditions: Compound concentration 1000.0 nM
[21] = target: Cyclin-dependent kinase 19 (Homo sapiens) (UniProt Q9BWU1); conditions: Compound concentration 1000.0 nM
[22] = target: Tyrosine-protein kinase JAK1 (Homo sapiens) (UniProt P23458); conditions: Compound concentration 1000.0 nM
[23] = tested on: Phosphatidylinositol 4,5-bisphosphate 3-kinase catalytic subunit alpha isoform (Homo sapiens), P42336 [H1047L]; conditions: Compound concentration 1000.0 nM
[24] = target: Tyrosine-protein kinase Tec (Homo sapiens) (UniProt P42680); conditions: Compound concentration 1000.0 nM
[25] = target: Dual specificity mitogen-activated protein kinase kinase 7 (Homo sapiens) (UniProt O14733); conditions: Compound concentration 1000.0 nM
[26] = target: Activin receptor type-1B (Homo sapiens) (UniProt P36896); conditions: Compound concentration 1000.0 nM
[27] = target: Membrane-associated tyrosine- and threonine-specific cdc2-inhibitory kinase (Homo sapiens) (UniProt Q99640); conditions: Compound concentration 1000.0 nM
[28] = target: Ribosomal protein S6 kinase beta-1 (Homo sapiens) (UniProt P23443); conditions: Compound concentration 1000.0 nM
[29] = target: D(2) dopamine receptor (Homo sapiens) (UniProt P14416); conditions: Compound concentration 10.0 uM
[30] = target: Aurora kinase C (Homo sapiens) (UniProt Q9UQB9); conditions: Compound concentration 1000.0 nM
[31] = target: Serine/threonine-protein kinase WNK1 (Homo sapiens) (UniProt Q9H4A3); conditions: Compound concentration 1000.0 nM
[32] = target: Serine/threonine-protein kinase VRK2 (Homo sapiens) (UniProt Q86Y07); conditions: Compound concentration 1000.0 nM
[33] = target: Serine/threonine-protein kinase WNK2 (Homo sapiens) (UniProt Q9Y3S1); conditions: Compound concentration 1000.0 nM
[34] = target: Dual specificity mitogen-activated protein kinase kinase 1 (Homo sapiens) (UniProt Q02750); conditions: Compound concentration 1000.0 nM
[35] = target: Ribosomal protein S6 kinase alpha-2 (Homo sapiens) (UniProt Q15349); conditions: Compound concentration 1000.0 nM
[36] = target: SNF-related serine/threonine-protein kinase (Homo sapiens) (UniProt Q9NRH2); conditions: Compound concentration 1000.0 nM
[37] = target: Alpha-2C adrenergic receptor (Homo sapiens) (UniProt P18825); conditions: Compound concentration 10.0 uM
[38] = target: Non-receptor tyrosine-protein kinase TYK2 (Homo sapiens) (UniProt P29597); conditions: Compound concentration 1000.0 nM
[39] = target: Tyrosine-protein kinase Lyn (Homo sapiens) (UniProt P07948); conditions: Compound concentration 1000.0 nM
[40] = target: Bone morphogenetic protein receptor type-1A (Homo sapiens) (UniProt P36894); conditions: Compound concentration 1000.0 nM
[41] = target: 5-hydroxytryptamine receptor 3A (Homo sapiens, UniProt P46098); test: GPCRScan assay: inhibition of 5-HT3; parameters: radioligand conc. used [nm] 1.0 – 2.0, parental cells HEKT
[42] = target: Microtubule-associated serine/threonine-protein kinase 1 (Homo sapiens) (UniProt Q9Y2H9); conditions: Compound concentration 1000.0 nM
[43] = target: Focal adhesion kinase 1 (Homo sapiens) (UniProt Q05397); conditions: Compound concentration 1000.0 nM
[44] = target: Mitogen-activated protein kinase kinase kinase 9 (Homo sapiens) (UniProt P80192); conditions: Compound concentration 1000.0 nM
[45] = target: Macrophage colony-stimulating factor 1 receptor (Homo sapiens) (UniProt P07333); conditions: Compound concentration 1000.0 nM

Sequence of 5-hydroxytryptamine receptor 3A (P46098 whole entry): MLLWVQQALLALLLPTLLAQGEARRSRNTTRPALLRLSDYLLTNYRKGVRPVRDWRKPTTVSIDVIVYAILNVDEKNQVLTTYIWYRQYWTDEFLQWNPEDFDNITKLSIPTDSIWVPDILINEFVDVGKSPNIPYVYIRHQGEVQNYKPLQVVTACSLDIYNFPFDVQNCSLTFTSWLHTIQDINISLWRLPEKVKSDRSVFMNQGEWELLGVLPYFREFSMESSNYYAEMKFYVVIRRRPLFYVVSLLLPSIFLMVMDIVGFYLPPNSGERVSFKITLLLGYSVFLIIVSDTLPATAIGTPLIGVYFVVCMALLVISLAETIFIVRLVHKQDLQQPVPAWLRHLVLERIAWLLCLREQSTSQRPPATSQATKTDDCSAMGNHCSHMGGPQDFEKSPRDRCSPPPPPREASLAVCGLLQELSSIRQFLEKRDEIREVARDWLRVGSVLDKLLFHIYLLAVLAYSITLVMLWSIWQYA
Sequence of SNF-related serine/threonine-protein kinase (Homo sapiens) (Q9NRH2 whole entry): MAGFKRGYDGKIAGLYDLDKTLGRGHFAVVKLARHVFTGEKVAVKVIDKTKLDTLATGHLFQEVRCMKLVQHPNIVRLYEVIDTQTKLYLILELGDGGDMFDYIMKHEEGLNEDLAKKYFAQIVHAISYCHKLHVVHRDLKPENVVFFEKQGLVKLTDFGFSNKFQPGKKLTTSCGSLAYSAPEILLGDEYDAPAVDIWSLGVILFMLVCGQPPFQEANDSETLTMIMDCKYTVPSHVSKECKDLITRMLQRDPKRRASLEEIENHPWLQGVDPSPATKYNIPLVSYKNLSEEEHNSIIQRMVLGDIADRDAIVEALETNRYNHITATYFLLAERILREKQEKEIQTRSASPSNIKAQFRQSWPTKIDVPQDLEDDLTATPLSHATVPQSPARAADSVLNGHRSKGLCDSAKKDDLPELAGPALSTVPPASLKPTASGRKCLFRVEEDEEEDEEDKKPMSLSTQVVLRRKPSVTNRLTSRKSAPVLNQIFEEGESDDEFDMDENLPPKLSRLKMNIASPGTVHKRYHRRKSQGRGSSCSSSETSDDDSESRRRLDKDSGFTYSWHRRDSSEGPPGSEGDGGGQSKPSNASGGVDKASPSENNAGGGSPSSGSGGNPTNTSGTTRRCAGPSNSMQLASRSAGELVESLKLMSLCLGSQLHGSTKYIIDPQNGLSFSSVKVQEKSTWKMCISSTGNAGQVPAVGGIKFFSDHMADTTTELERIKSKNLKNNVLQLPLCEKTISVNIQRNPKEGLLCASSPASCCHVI
Sequence of Phosphatidylinositol 4,5-bisphosphate 3-kinase catalytic subunit alpha isoform (Homo sapiens), P42336 [H1047L] (P42336 whole entry H1047L, canonical isoform): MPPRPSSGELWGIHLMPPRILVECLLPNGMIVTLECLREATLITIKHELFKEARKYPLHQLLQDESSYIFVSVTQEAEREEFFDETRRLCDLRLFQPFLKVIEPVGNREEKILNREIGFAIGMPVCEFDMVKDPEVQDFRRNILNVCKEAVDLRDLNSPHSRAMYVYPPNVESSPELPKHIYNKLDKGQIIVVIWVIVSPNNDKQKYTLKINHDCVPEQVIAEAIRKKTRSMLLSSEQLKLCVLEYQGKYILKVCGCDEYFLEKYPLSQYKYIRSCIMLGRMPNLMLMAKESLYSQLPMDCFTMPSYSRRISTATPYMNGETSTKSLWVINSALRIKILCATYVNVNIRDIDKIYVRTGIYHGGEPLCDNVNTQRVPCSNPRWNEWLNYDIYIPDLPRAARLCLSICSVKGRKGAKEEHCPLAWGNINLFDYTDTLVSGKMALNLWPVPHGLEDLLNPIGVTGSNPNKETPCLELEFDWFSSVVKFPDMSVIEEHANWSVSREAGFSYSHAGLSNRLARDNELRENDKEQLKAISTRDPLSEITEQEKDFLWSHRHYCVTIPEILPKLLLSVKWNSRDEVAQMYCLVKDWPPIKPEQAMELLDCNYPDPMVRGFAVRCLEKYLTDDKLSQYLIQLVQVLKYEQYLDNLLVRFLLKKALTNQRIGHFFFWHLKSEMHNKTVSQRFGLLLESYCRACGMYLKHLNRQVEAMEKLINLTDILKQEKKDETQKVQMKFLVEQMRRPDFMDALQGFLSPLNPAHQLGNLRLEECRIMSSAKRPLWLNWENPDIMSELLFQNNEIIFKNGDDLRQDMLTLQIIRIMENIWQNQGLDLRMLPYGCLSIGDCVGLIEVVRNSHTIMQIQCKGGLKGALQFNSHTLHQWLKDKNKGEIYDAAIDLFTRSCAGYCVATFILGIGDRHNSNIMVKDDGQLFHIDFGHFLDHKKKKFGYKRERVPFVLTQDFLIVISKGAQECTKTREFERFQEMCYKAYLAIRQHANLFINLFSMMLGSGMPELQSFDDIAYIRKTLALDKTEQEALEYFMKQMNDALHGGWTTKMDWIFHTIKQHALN
Sequence of Mitogen-activated protein kinase kinase kinase 9 (Homo sapiens) (P80192 whole entry, looked up): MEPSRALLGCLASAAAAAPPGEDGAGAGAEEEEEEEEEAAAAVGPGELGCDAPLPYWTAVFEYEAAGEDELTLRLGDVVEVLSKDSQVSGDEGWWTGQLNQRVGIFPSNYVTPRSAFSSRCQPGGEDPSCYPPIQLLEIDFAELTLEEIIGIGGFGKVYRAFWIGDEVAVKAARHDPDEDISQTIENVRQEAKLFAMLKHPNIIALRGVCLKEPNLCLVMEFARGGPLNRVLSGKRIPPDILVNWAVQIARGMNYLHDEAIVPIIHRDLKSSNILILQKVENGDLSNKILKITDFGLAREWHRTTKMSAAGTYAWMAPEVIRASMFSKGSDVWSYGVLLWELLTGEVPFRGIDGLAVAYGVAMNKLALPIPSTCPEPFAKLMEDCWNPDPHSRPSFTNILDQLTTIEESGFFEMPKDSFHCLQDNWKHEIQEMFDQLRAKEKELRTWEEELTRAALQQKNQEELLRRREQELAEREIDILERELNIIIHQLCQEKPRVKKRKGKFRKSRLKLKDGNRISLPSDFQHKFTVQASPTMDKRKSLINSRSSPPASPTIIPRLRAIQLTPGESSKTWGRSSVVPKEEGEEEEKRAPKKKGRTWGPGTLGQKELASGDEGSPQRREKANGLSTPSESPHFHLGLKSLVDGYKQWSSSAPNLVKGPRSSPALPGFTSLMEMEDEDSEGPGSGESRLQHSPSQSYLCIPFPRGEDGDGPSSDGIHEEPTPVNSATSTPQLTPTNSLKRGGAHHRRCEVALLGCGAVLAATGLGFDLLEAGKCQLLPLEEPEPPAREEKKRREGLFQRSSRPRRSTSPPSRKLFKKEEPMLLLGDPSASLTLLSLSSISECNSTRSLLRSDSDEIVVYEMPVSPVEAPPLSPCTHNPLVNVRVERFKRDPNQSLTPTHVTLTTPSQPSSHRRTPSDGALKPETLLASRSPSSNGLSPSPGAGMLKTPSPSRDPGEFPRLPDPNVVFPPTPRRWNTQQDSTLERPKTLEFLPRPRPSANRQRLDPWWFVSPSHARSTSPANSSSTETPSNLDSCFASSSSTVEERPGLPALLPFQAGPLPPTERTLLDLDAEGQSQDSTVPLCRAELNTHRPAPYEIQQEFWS
Sequence of Microtubule-associated serine/threonine-protein kinase 1 (Homo sapiens) (Q9Y2H9 whole entry, looked up): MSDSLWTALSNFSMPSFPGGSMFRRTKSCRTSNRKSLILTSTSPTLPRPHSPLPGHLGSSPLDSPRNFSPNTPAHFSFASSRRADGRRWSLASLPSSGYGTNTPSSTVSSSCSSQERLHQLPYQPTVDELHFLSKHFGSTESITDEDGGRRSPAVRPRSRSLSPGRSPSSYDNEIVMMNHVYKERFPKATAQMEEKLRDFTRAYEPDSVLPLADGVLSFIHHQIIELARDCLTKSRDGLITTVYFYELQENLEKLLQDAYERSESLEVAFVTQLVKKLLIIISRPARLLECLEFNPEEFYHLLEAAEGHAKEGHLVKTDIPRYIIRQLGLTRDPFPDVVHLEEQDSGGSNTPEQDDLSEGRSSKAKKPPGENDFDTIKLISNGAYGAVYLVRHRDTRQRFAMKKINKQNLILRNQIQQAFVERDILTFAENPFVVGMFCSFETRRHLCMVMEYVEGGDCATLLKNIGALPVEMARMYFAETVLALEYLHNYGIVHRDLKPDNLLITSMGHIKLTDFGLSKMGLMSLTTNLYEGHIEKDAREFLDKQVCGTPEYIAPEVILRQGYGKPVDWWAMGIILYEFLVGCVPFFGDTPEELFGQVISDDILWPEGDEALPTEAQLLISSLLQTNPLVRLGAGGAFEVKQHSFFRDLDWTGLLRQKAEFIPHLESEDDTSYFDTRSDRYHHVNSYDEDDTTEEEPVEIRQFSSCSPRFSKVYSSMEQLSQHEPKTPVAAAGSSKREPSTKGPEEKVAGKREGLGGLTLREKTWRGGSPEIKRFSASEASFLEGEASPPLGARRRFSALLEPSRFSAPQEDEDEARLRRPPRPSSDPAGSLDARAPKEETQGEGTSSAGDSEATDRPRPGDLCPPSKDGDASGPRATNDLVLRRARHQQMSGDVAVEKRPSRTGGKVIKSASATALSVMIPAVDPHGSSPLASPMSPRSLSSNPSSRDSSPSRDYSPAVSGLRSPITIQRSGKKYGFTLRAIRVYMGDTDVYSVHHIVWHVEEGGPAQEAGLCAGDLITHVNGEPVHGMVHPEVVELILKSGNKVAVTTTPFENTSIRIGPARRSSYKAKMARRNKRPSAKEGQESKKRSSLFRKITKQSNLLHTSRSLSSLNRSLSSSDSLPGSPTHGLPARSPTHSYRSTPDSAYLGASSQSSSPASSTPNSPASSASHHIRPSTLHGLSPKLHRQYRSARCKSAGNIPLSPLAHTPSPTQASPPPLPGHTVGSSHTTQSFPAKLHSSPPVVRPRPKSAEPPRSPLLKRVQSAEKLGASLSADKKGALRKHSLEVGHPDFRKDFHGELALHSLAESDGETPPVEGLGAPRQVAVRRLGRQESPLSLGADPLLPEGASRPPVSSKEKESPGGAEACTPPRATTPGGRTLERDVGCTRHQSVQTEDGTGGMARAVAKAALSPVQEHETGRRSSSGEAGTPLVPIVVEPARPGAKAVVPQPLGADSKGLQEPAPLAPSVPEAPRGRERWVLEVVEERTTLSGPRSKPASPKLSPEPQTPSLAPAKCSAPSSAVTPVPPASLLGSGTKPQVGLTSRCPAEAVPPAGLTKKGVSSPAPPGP

## CN(C)CC#Cc1ccc(OCCCc2sc(N3CCc4cccc(C(=O)Nc5nc6ccccc6s5)c4C3)nc2C(=O)O)c(F)c1 [A-1155463]
[1]
  residual activity: 100%
[2]
  inhibition: -1.75%
[3]
  residual activity: 100%
[4]
  EC50: > 10000 nM (not active)
[5]
  residual activity: 92%
[6]
  residual activity: 93%
[7]
  residual activity: 97%
[8]
  residual activity: 88%
[9]
  residual activity: 100%
[10]
  residual activity: 93%
[11]
  residual activity: 100%
[12]
  residual activity: 71%
[13]
  residual activity: 76%
[14]
  residual activity: 51%
[15]
  residual activity: 100%
[16]
  residual activity: 100%
[17]
  residual activity: 94%
[18]
  residual activity: 84%
[19]
  inhibition: 5.67%
[20]
  residual activity: 100%
[21]
  residual activity: 95%
[22]
  residual activity: 100%
[23]
  residual activity: 68%
[24]
  residual activity: 97%
[25]
  residual activity: 69%
[26]
  residual activity: 100%
[27]
  residual activity: 71%
[28]
  residual activity: 100%
[29]
  inhibition: 31.5%
[30]
  residual activity: 9%
[31]
  residual activity: 90%
[32]
  residual activity: 100%
[33]
  residual activity: 96%
[34]
  residual activity: 100%
[35]
  residual activity: 100%
[36]
  residual activity: 100%
[37]
  inhibition: 10.8%
[38]
  residual activity: 85%
[39]
  residual activity: 100%
[40]
  residual activity: 99%
[41]; read-out: Ki
  Ki: 1140 nM
[41]; read-out: pKi (converted)
  Ki: 1070 nM
[42]
  residual activity: 89%
[43]
  residual activity: 100%
[44]
  residual activity: 92%
[45]
  residual activity: 87%
